Data reported in PubChem BioAssay AID1918932 (Molecular Pharmacology Branch, DTP, NCI, 2023).

System: 171881-019-R-J1-PDC complex spheroid viability
Assay: Anticancer human tumor 171881-019-R-J1-PDC patient-derived invasive breast carcinoma cell line growth inhibition
Details: for IC50: curve of first compound; for viability, T/C: stronger effect = lower value; active means viability on the fitted dose curve at most 10% of control; inactive means the rest
Procedure, shortened: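 Drug combinations with the LSD1 inhibitor iadademstat tested on tumor cells co-cultured as spheroids with endothelial cells and mesenchymal stem cells. Concentrations descended in half-log increments from clinical Cmax or 10 microM.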

[1] = second compound 0.1 µM, first compound 0.00316 µM
[2] = second compound 0.1 µM, first compound 0.01 µM
[3] = second compound 0.1 µM, first compound 0.0316 µM
[4] = second compound 0.1 µM, first compound 0.1 µM
[5] = second compound 0.1 µM, first compound 0.316 µM
[6] = second compound 0.1 µM, first compound 1 µM
[7] = second compound 0.316 µM, first compound 0.00316 µM
[8] = second compound 0.316 µM, first compound 0.01 µM
[9] = second compound 0.316 µM, first compound 0.0316 µM
[10] = second compound 0.316 µM, first compound 0.1 µM
[11] = second compound 0.316 µM, first compound 0.316 µM
[12] = second compound 0.316 µM, first compound 1 µM
[13] = second compound 1 µM, first compound 0.00316 µM
[14] = second compound 1 µM, first compound 0.01 µM
[15] = second compound 1 µM, first compound 0.0316 µM
[16] = second compound 1 µM, first compound 0.1 µM
[17] = second compound 1 µM, first compound 0.316 µM
[18] = second compound 1 µM, first compound 1 µM
[19] = second compound 3.16 µM, first compound 0.00316 µM
[20] = second compound 3.16 µM, first compound 0.01 µM
[21] = second compound 3.16 µM, first compound 0.0316 µM
[22] = second compound 3.16 µM, first compound 0.1 µM
[23] = second compound 3.16 µM, first compound 0.316 µM
[24] = second compound 3.16 µM, first compound 1 µM
[25] = second compound 10 µM, first compound 0.00316 µM
[26] = second compound 10 µM, first compound 0.01 µM
[27] = second compound 10 µM, first compound 0.0316 µM
[28] = second compound 10 µM, first compound 0.1 µM
[29] = second compound 10 µM, first compound 0.316 µM
[30] = second compound 10 µM, first compound 1 µM
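Further: spheroids exposed to agents for 7 days after 3 days growth.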

O=C(C=Cn1cnc(-c2cc(C(F)(F)F)cc(C(F)(F)F)c2)n1)NNc1cnccn1 + NC1CC1c1ccc(-c2cccc(O)c2)cc1
active: viability, T/C [3] 4.97% | viability, T/C [4] 2.14% | viability, T/C [5] 2.1% | viability, T/C [6] 1.99% | viability, T/C [9] 5.36% | viability, T/C [10] 2.27% | viability, T/C [11] 2.08% | viability, T/C [12] 1.91% | viability, T/C [15] 9.98% | viability, T/C [16] 2.64% | viability, T/C [17] 2.11% | viability, T/C [18] 1.82% | viability, T/C [21] 5.43% | viability, T/C [22] 2.42% | viability, T/C [23] 2.5% | viability, T/C [24] 2.17% | viability, T/C [28] 11.4% | viability, T/C [29] 6.91% | viability, T/C [30] 3.16%
< 3.16 nM: IC50 (second compound 0.1 µM) | IC50 (second compound 0.316 µM) | IC50 (second compound 1 µM) | IC50 (second compound 3.16 µM) | IC50 (second compound 10 µM)
inactive: viability, T/C [1] 19.1% | viability, T/C [2] 13% | viability, T/C [7] 21.3% | viability, T/C [8] 14.4% | viability, T/C [13] 23.4% | viability, T/C [14] 16.1% | viability, T/C [19] 25.9% | viability, T/C [20] 17.5% | viability, T/C [25] 25% | viability, T/C [26] 16.5% | viability, T/C [27] 6.08%

COc1cc(C2c3cc4c(cc3C(OC3OC5COC(C)OC5C(O)C3O)C3COC(=O)C23)OCO4)cc(OC)c1O (stereo not given) + NC1CCC(NC2CC2c2ccccc2)CC1
439 nM: IC50 (second compound 0.1 µM)
440 nM: IC50 (second compound 0.316 µM)
inactive: viability, T/C (second compound 0.1 µM, first compound 0.00949 µM) 72.8% | viability, T/C (second compound 0.1 µM, first compound 0.03 µM) 90.8% | viability, T/C (second compound 0.1 µM, first compound 0.0949 µM) 87.9% | viability, T/C (second compound 0.1 µM, first compound 0.3 µM) 56.8% | viability, T/C (second compound 0.1 µM, first compound 0.949 µM) 33.2% | viability, T/C (second compound 0.1 µM, first compound 3 µM) 18.5% | viability, T/C (second compound 0.316 µM, first compound 0.00949 µM) 76.8% | viability, T/C (second compound 0.316 µM, first compound 0.03 µM) 98.2% | viability, T/C (second compound 0.316 µM, first compound 0.0949 µM) 94% | viability, T/C (second compound 0.316 µM, first compound 0.3 µM) 58.1% | viability, T/C (second compound 0.316 µM, first compound 0.949 µM) 33.1% | viability, T/C (second compound 0.316 µM, first compound 3 µM) 18.4% | viability, T/C (second compound 1 µM, first compound 0.00949 µM) 87.6% | viability, T/C (second compound 1 µM, first compound 0.03 µM) 87.8% | viability, T/C (second compound 1 µM, first compound 0.0949 µM) 86.5% | viability, T/C (second compound 1 µM, first compound 0.3 µM) 57.9% | viability, T/C (second compound 1 µM, first compound 0.949 µM) 39% | viability, T/C (second compound 1 µM, first compound 3 µM) 19.8% | viability, T/C (second compound 3.16 µM, first compound 0.00949 µM) 80.7% | viability, T/C (second compound 3.16 µM, first compound 0.03 µM) 99.1% | viability, T/C (second compound 3.16 µM, first compound 0.0949 µM) 96.4% | viability, T/C (second compound 3.16 µM, first compound 0.3 µM) 60.3% | viability, T/C (second compound 3.16 µM, first compound 0.949 µM) 40.8% | viability, T/C (second compound 3.16 µM, first compound 3 µM) 22.2% | viability, T/C (second compound 10 µM, first compound 0.00949 µM) 80.9% | viability, T/C (second compound 10 µM, first compound 0.03 µM) 104% | viability, T/C (second compound 10 µM, first compound 0.0949 µM) 95% | viability, T/C (second compound 10 µM, first compound 0.3 µM) 67.8% | viability, T/C (second compound 10 µM, first compound 0.949 µM) 42.5% | viability, T/C (second compound 10 µM, first compound 3 µM) 25.8%
649 nM: IC50 (second compound 10 µM)
511 nM: IC50 (second compound 1 µM)
536 nM: IC50 (second compound 3.16 µM)

Nc1ncn(C2CC(O)C(CO)O2)c(=O)n1 (stereo not given) + NC1CCC(NC2CC2c2ccccc2)CC1
inactive: viability, T/C [1] 88.4% | viability, T/C [2] 93.3% | viability, T/C [3] 93.1% | viability, T/C [4] 115% | viability, T/C [5] 111% | viability, T/C [6] 101% | viability, T/C [7] 96% | viability, T/C [8] 81.7% | viability, T/C [9] 92.9% | viability, T/C [10] 122% | viability, T/C [11] 115% | viability, T/C [12] 94.2% | viability, T/C [13] 94.9% | viability, T/C [14] 81.1% | viability, T/C [15] 95.6% | viability, T/C [16] 123% | viability, T/C [17] 117% | viability, T/C [18] 97.1% | viability, T/C [19] 82.5% | viability, T/C [20] 92.9% | viability, T/C [21] 106% | viability, T/C [22] 122% | viability, T/C [23] 114% | viability, T/C [24] 97.7% | viability, T/C [25] 86.1% | viability, T/C [26] 105% | viability, T/C [27] 112% | viability, T/C [28] 102% | viability, T/C [29] 111% | viability, T/C [30] 99.8%
> 1000 nM: IC50 (second compound 0.1 µM) | IC50 (second compound 0.316 µM) | IC50 (second compound 1 µM) | IC50 (second compound 3.16 µM) | IC50 (second compound 10 µM)
